Experiments:
[1] = test system: HCT-116/5-FU-R cells; assay: Matrigel invasion assay; format: cell-based; settings: SiChk2 and PV1019 pre-treated conditions, 48 h
Source text: To examine whether 4DPG-mediated repression of Vimentin and invasiveness is a Chk2-dependent process, we performed genetic silencing of endogenous Chk2 in the 5-FU-R cells using target-specific SiRNAs.
Fig. 3 Chk2-dependent role of 4DPG in modulating p53 and repressing Vimentin expression in 5-FU-R cells. A Immunocytochemistry results showing the Vimentin expression level in SW-620/5-FU-R cells treated/transfected with scramble, SiChk2, scramble plus 4DPG, SiChk2 plus 4DPG, vehicle, PV1019, 4DPG, and PV1019 plus 4DPG for 48 h. Scale bars: 50 µm. […] C Matrigel invasion assay results showing invaded HCT-116/5-FU-R and SW-620/5-FU-R cells following 48 h of transient transfection with GFP and GFP-Chk2 plasmid construct. Scale bars: 50 µm. D Quantification of the number of invaded cells per field from the above experimental conditions. n = 3, error bars, mean ± SD; *P < 0.05, ***P < 0.001. E Immunocytochemistry results displaying Vimentin expression levels in HCT-116/5-FU-R and SW-620/5-FU-R cells after 48 h of transient transfection with pCDNA3 and/or HA-Chk2 plasmid construct. Scale bars: 50 µm. F Immunoprecipitation with Vimentin or p53 followed by western blotting analysis of p53 in SW-620/5-FU-R cells treated with vehicle and/or 4DPG (300 nM) for 48 h. […]

[2] = test system: orthotopic rat colorectal carcinoma; settings: 25 mg/kg thrice a week for 3 weeks
Source text: To examine the antitumor and anti-metastatic efficacy of 4DPG in vivo, we employed a carcinogen-induced orthotopic rat colorectal carcinoma model. […] The schematic representation briefly describes the steps involved in the generation of orthotopic colorectal tumors along with the treatment strategy and further analysis (details in “Materials and methods”). The animals were euthanized at the end of the experiment and evaluated for tumor and metastatic burden (Fig. 4A). […] To validate whether our in vitro observations on mechanistic inhibition of EMT and invasion by 4DPG hold true in vivo, we performed immunohistochemical analysis of the tumor tissues acquired from the saline and 4DPG-treated animal groups.
A Model depicting the procedure adopted for generating the carcinogen-induced orthotopic rat CRC model, treatment strategies of 4DPG, evaluation of tumor burden, and further biochemical analysis. B Representative images of large bowel showing the colorectal tumor growth in saline, 5-FU (25 mg/kg), and 4DPG (25 mg/kg) treated groups of animals. C, D Quantification of tumor volume and number of polyps per rat in above groups of animals. n = 6 rats per group, error bars: mean ± SD; *P < 0.05, **P < 0.01, ***P < 0.001. E Representative images of the lungs dissected from the above groups of animals showing metastatic tumor burden. Orange arrows indicating bumps of secondary tumors over each lobe of lungs. F, G Quantification of a number of macroscopic secondary tumors over the lung tissues and lung weight in the above groups of animals. n = 6 rats per group, error bars, mean ± SD; **P < 0.01, ***P < 0.001. […] Scale bar: 50 µm. I Western blots depicting expression of p-Chk2 (Thr68), Chk2, p53, p-Vimentin (Ser38), and Vimentin in tumor tissues obtained from saline- and 4DPG-treated groups of animals. β-Actin expression was taken as endogenous loading control. J Densitometry analysis of the above western blot bands portraying relative protein expression of the markers presented. n = 3, error bars: mean ± SD; **P < 0.01, ***P < 0.001.
Animal studies were performed following the guidelines approved by Institutional Animal Ethics Committee (IAEC No. 51/02/15) of CSIR-Indian Institute of Integrative Medicine, Jammu, India. The experiment was performed according to our standardized protocol described previously with necessary modifications. Five-weeks-old healthy male Wistar rats (body weight 150–200 g) were maintained in aseptic condition with free access to food and water. Animals were randomized into three groups, with six animals per group. All the rats received intrarectal instillation of 0.5 mL of freshly prepared 0.4% aqueous solution of N-methyl-N-nitrosourea (MNU) thrice a week for 3 weeks, for the orthotopic induction of colorectal tumors. The solution was injected using sterile syringe with attached 8-cm long rubber catheter tube inserted two-thirds into the colon lumen through anal orifice, as described previously. The animals were kept under continuous monitoring, and the body weight was measured once per week. Following 22 weeks after the initiation of MNU administration, treatment regimens were started by administering 5-FU (25 mg/kg), and 4DPG (25 mg/kg) thrice a week for 3 weeks. The control and treatment groups of animals were dosed separately by three independent investigators and the outcomes were assessed by a fourth investigator blind about the dosing process and treatment regimen.

Question: With `COc1cc([C@@H]2c3cc4c(cc3C[C@H]3COC(=O)[C@@H]32)OCO4)cc(OC)c1O[C@@H]1O[C@H](CO)[C@@H](O)[C@H](O)[C@H]1O` [4DPG, 4′-demethyl-deoxypodophyllotoxin glucoside] as the molecule, how does the “effect of 4DPG to block invasion abilities” value [1] read?
Answer: Its value is “distinctly reduced”.

Question: What about the lung metastases [2] of the same molecule?
Answer: The lung metastases was “strongly prevented the development of lung metastases”.

Question: And the drug-related toxicity/adverse effects ([2]; until end of experiment)?
Answer: The drug-related toxicity/adverse effects was “without any drug-related toxicity/adverse effects”.

Question: And the “average number of polyps” value ([2]; control group 16)?
Answer: The value was 3.

Question: And the mean tumor volume ([2]; saline control 820.6 mm^3)?
Answer: Its mean tumor volume is 116.8 mm^3.
